Legend:
[1] = biological target: Luciferin 4-monooxygenase (Photinus pyralis, UniProt P08659)
Description: GSK_PKIS: Inhibition of Firefly Luciferase (Data from PubChem: AID 652016) [NIH NCATS]

[2] = biological target: T1, Coelenterazine h 2-monooxygenase (Renilla reniformis, UniProt P27652)
T1 sequence (P27652 whole entry): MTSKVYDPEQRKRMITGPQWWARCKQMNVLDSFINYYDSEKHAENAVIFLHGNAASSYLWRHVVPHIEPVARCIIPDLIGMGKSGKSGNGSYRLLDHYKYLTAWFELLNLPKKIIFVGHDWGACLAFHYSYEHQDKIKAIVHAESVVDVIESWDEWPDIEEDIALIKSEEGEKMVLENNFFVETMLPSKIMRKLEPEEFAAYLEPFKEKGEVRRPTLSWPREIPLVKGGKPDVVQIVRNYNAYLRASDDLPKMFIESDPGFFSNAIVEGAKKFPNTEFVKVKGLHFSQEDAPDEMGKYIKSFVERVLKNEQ
Description: GSK_PKIS: Inhibition of Sea Pansy Luciferase (Data from PubChem: AID 652015) [NIH NCATS]

Sequence of Luciferin 4-monooxygenase (P08659 whole entry): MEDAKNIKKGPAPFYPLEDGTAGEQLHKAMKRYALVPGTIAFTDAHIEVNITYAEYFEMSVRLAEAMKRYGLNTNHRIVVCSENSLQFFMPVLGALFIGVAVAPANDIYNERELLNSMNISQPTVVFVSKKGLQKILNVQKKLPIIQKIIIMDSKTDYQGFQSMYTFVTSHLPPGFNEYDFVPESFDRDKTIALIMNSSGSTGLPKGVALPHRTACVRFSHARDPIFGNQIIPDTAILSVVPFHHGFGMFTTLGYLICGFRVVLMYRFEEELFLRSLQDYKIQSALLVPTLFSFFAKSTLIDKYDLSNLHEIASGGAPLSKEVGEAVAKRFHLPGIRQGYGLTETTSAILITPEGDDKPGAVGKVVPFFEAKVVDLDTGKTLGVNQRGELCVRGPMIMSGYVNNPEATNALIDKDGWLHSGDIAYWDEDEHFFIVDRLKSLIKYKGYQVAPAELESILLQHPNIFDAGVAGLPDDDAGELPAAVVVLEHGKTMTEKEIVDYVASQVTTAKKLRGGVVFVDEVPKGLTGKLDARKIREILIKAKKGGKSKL

## COc1ccc(-c2nn3ncccc3c2-c2ccnc(Nc3ccc(F)c(F)c3)n2)cc1 [GW827396X]
[1]
  AC50: Phenotype: Inactive; Curve_Description: None
[2]
  AC50: Phenotype: Inactive; Curve_Description: None

## Cc1nc(-c2ccccc2)n2nc(NCCCN3CCOCC3)ncc12 [GW874091X]
[1]
  AC50: Phenotype: Inactive; Curve_Description: None
[2]
  AC50: Phenotype: Inactive; Curve_Description: None

## COc1cc2ncn(-c3cc(O[C@@H](C)c4ccccc4Cl)c(C(N)=O)s3)c2cc1OC [GSK-237700A]
[1]
  AC50: Phenotype: Inactive; Curve_Description: None
[2]
  AC50: Phenotype: Inactive; Curve_Description: None

## CCn1c(-c2nonc2N)nc2c(N3CCCC3)nccc21
[1]
  AC50: Phenotype: Inactive; Curve_Description: None
[2]
  AC50: Phenotype: Inactive; Curve_Description: None

## CN1CCN(C(=O)c2ccc(NC(=O)Nc3ccc(N(C)c4ccnc(Nc5ccc(CS(C)(=O)=O)cc5)n4)cc3)cc2)CC1.Cl [GW830263A]
[1]; read-out: AC50
  AC50: 9.19 µM
[2]
  AC50: Phenotype: Inactive; Curve_Description: None

## N#Cc1c(NC(=O)c2ccc(F)cc2)sc2c1CCCC2
[1]; read-out: AC50
  AC50: 0.919 µM
[2]
  AC50: Phenotype: Inactive; Curve_Description: None

## COc1cc(C)c(NC(=O)CN(C)C)cc1Nc1nc(Nc2cccc(F)c2C(N)=O)c2cc[nH]c2n1 [GSK-2213727A]
[1]
  AC50: Phenotype: Inactive; Curve_Description: None
[2]
  AC50: Phenotype: Inactive; Curve_Description: None

## COc1cc2ncnc(Nc3ccc4c(cnn4Cc4ccccc4)c3)c2cc1OC.Cl [GW282449A]
[1]
  AC50: Phenotype: Inactive; Curve_Description: None
[2]
  AC50: Phenotype: Inactive; Curve_Description: None

## Fc1ccc(-c2c(-c3ccncc3)nc3n2CCS3)cc1
[1]
  AC50: Phenotype: Inactive; Curve_Description: None
[2]
  AC50: Phenotype: Inactive; Curve_Description: None

## Cc1ccc(C(=O)NC(C)C)cc1-c1ccc(C(=O)NCC2CC2)cc1 [GW785974X]
[1]
  AC50: Phenotype: Inactive; Curve_Description: None
[2]
  AC50: Phenotype: Inactive; Curve_Description: None

## CN(C)c1ccc2c(c1)/C(=C/Nc1ccc(S(N)(=O)=O)cc1)C(=O)N2 [GW416469X]
[1]
  AC50: Phenotype: Inactive; Curve_Description: None
[2]; read-out: AC50
  AC50: 5.8 µM

## O=C(Nc1n[nH]c2nc(-c3ccco3)ccc12)C1CC1
[1]
  AC50: Phenotype: Inactive; Curve_Description: None
[2]
  AC50: Phenotype: Inactive; Curve_Description: None

## CS(=O)(=O)CCNCc1ccc(-c2ccc3ncnc(Nc4ccc(OCc5cccc(C(F)(F)F)c5)cc4)c3c2)o1.Cl [GW567808A]
[1]
  AC50: Phenotype: Inactive; Curve_Description: None
[2]
  AC50: Phenotype: Activator; Curve_Description: None

## O=C1NC(=O)C(c2ccc(Cl)cc2)=C1Nc1ccc(Cl)c(C(=O)O)c1
[1]
  AC50: Phenotype: Inactive; Curve_Description: None
[2]
  AC50: Phenotype: Inactive; Curve_Description: None

## CCN1CCC(C(=O)Nc2n[nH]c3nnc(-c4cccc(F)c4F)cc23)CC1.Cl
[1]
  AC50: Phenotype: Inactive; Curve_Description: None
[2]
  AC50: Phenotype: Inactive; Curve_Description: None

## COc1cc(/C=N/Nc2ncnc3c2cnn3C(C)C)ccc1O [GW644007X]
[1]; read-out: AC50
  AC50: 5.8 µM
[2]
  AC50: Phenotype: Inactive; Curve_Description: None

## O=C1NC(=O)C(c2cccc(Cl)c2)=C1Nc1ccc(Cl)c(C(=O)O)c1
[1]
  AC50: Phenotype: Inactive; Curve_Description: None
[2]
  AC50: Phenotype: Inactive; Curve_Description: None

## Fc1ccc(-c2ncn(C3CCNCC3)c2-c2ccnc(Oc3ccc(Oc4ccccc4)cc3)n2)cc1
[1]
  AC50: Phenotype: Inactive; Curve_Description: None
[2]; read-out: AC50
  AC50: 20.6 µM

## CC(=O)NCc1cccc(C#Cc2cncnc2Nc2ccc(OCc3cccc(F)c3)c(Cl)c2)c1 [GW807930X]
[1]
  AC50: Phenotype: Activator; Curve_Description: None
[2]
  AC50: Phenotype: Inactive; Curve_Description: None

## COc1cccc(-n2ncc3c(N/N=C/c4ccc(F)cc4)ncnc32)c1 [GW817396X]
[1]; read-out: AC50
  AC50: 32.6 µM
[2]; read-out: AC50
  AC50: 0.0005 µM

Reference: ChEMBL document CHEMBL2303647, “Data associated with the publication PLoS ONE, 8(3), e57888, (2013) PMID: 23505445. Compounds: GSK PKIS; Assays: NIH NCATS”
